Assay results from patent US11059795B2, “Androgen receptor modulators and methods for their use” (ESSA Pharma, Inc., priority 2018, dated 2021).
Like-named read-outs stand apart in the source and are kept apart here.

Legend:
androgen receptor (AR) = molecular target: T1, androgen receptor (AR) (Homo sapiens, UniProt P10275, T878A); assay: Androgen-induced PSA (6.1 kb)-luciferase reporter assay in LNCaP cells; format: cell-based; settings: LNCaP cells transfected with PSA (6.1 kb)-luciferase reporter, R1881 1 nM, 24 h
T1 construct: LNCaP cells were transiently transfected with the PSA (6.1 kb)-luciferase reporter for 24 h; endogenous in cells; host or cells: LNCaP
T1 sequence (P10275 1-920 T878A): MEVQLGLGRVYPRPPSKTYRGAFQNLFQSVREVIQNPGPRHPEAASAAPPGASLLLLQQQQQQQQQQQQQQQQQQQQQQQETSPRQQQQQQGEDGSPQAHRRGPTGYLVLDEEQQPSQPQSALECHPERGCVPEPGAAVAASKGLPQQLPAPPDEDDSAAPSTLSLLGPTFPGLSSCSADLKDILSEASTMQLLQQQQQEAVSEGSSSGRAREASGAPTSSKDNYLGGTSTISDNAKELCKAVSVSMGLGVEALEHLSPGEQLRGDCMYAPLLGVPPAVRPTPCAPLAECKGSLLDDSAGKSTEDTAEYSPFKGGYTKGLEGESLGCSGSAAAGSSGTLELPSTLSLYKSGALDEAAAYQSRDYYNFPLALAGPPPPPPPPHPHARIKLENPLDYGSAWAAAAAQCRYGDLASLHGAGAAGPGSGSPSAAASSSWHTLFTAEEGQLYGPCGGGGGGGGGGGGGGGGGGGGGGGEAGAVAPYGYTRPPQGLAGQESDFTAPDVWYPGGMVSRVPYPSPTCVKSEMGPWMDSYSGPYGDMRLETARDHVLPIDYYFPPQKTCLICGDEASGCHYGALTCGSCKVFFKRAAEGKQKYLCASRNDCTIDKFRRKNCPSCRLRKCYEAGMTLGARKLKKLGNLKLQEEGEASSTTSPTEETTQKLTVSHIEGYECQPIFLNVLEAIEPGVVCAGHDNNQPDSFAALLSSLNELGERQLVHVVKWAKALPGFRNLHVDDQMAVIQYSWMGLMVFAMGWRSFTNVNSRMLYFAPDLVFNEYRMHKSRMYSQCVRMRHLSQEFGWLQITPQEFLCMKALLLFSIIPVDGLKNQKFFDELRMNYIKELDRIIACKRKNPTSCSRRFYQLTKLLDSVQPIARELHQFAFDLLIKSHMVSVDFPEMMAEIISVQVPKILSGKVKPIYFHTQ
Procedure, shortened: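 LNCaP cells carrying a PSA (6.1 kb) promoter-luciferase reporter with AREs; androgen-induced firefly luciferase read from lysates for 10 s. RLU normalized to protein content; IC50 calculated from the normalized data.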

[1] = Microsomal stability assay, human liver microsomes; format: in vitro ADME; settings: for microsomal CLint at 1 μM: pH 7.4, 1 μM compound, 0.5 mg/mL protein, 37° C., read-out: HLM +/− NADPH: Clint (μL/min/mg protein); for half-life at 1 μM: pH 7.4, read-out: Liver microsome T½ (min) Human
Procedure, shortened: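 Compound at 1 μM was incubated at 37° C with 0.5 mg/mL liver microsomes and 1 mM NADPH and/or 1 mM UDPGA (with alamethicin) in 100 mM potassium phosphate pH 7.4, 3 mM MgCl2. Samples were taken at 0, 15, 30 and 60 min and measured by LC/MS/MS. t½ came from compound loss relative to 0 min, and Clint was scaled with 45 mg microsomal protein/g liver.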

| IC50 (androgen receptor (AR); read-out: PSA-Luc IC50 Range) [nM] | microsomal CLint at 1 μM [1] [µL/min/mg] | IC50 (androgen receptor (AR); read-out: PSA-Luc IC50) [nM] | half-life at 1 μM [1] [min] | Compound |
| --- | --- | --- | --- | --- |
| 500 to 2000 | < 12 | – | – | C[C@H](Oc1ccc(C(C)(C)c2cc(Cl)c(OCCCl)c(C#N)c2)cc1)c1ccnc(NS(C)(=O)=O)n1 (single isomer, unassigned) [Compound A170] |
| 500 to 2000 | < 12 | 592 | > 120 | CC(C)(c1ccc(OCc2ocnc2S(C)(=O)=O)cc1)c1cc(Cl)c(OCCCl)c(Cl)c1 [Compound A13, 5-((4-(2-(3,5-dichloro-4-(2-chloroethoxy)phenyl)propan-2-yl)phenoxy)methyl)-4-(methylsulfonyl)oxazole] |
| < 500 | < 12 | 400 | > 120 | CC(C)(c1ccc(OCc2ocnc2S(C)(=O)=O)cc1)c1cc(Cl)c(OCCCl)c(C#N)c1 [Compound A28, 3-chloro-2-(2-chloroethoxy)-5-(2-(4-((4-(methylsulfonyl)oxazol-5-yl)methoxy)phenyl)propan-2-yl)benzonitrile] |
| 500 to 2000 | < 12 | 631 | > 120 | CC(C)(c1ccc(OCc2coc(NS(C)(=O)=O)n2)cc1)c1cc(Cl)c(OCCCl)c(Cl)c1 [Compound A38, N-(4-((4-(2-(3,5-dichloro-4-(2-chloroethoxy)phenyl)propan-2-yl)phenoxy)methyl)oxazol-2-yl)methanesulfonamide] |
| 500 to 2000 | < 12 | 658 | > 120 | CC(C)(c1ccc(OCc2ccnc(NS(C)(=O)=O)n2)cc1)c1cc(Cl)c(OCCCl)c(Cl)c1 [Compound A74, N-(4-((4-(2-(3,5-dichloro-4-(2-chloroethoxy)phenyl)propan-2-yl)phenoxy)methyl)pyrimidin-2-yl)methanesulfonamide] |
| < 500 | < 12 | 205 | > 120 | CC(C)(c1ccc(OCc2ncc(S(C)(=O)=O)s2)cc1)c1cc(Cl)c(OCCCl)c(C#N)c1 [Compound A93, 3-chloro-2-(2-chloroethoxy)-5-(2-(4-((5-(methylsulfonyl)thiazol-2-yl)methoxy)phenyl)propan-2-yl)benzonitrile] |
| 500 to 2000 | < 12 | 535 | > 120 | CC(C)(c1ccc(OCc2ccnc(NS(C)(=O)=O)n2)cc1)c1cc(Cl)c(OCCCl)c(C#N)c1 [Compound A109, N-(4-((4-(2-(3-chloro-4-(2-chloroethoxy)-5-cyanophenyl)propan-2-yl)phenoxy)methyl)pyrimidin-2-yl)methanesulfonamide] |
| < 500 | < 12 | – | – | Cc1cnc(NS(C)(=O)=O)nc1COc1ccc(C(C)(C)c2cc(Cl)c(OCCCl)c(C#N)c2)cc1 [Compound A122, N-(4-((4-(2-(3-Chloro-4-(2-chloroethoxy)-5-cyanophenyl)propan-2-yl)phenoxy)methyl)-5-methylpyrimidin-2-yl)methanesulfonamide] |
| 500 to 2000 | < 12 | – | – | CCS(=O)(=O)Nc1nc(COc2ccc(C(C)(C)c3cc(Cl)c(OCCCl)c(C#N)c3)cc2)co1 [Compound A126] |
| 500 to 2000 | < 12 | – | – | CCS(=O)(=O)Nc1nccc(COc2ccc(C(C)(C)c3cc(Cl)c(OCCCl)c(C#N)c3)cc2)n1 [Compound A131] |
| 500 to 2000 | 12 to 48 | – | – | CC(C)(c1ccc(OCc2nc(S(C)(=O)=O)cs2)cc1)c1cc(Cl)c(OCCCl)c(C#N)c1 [Compound A136, 3-Chloro-2-(2-chloroethoxy)-5-(2-(4-((4-(methylsulfonyl)thiazol-2-yl)methoxy)phenyl)propan-2-yl)benzonitrile] |
| – | – | 1050 | > 120 | CC(C)(c1ccc(OC[C@H](O)CNS(C)(=O)=O)cc1)c1cc(Cl)c(OC[C@H](O)CCl)c(Cl)c1 [X, reference compound] |
